# In patent publication US20240285652A1, “AMORPHOUS NANO-MOLECULAR AGGREGATE COMPOSED OF ORGANIC MATERIAL, INORGANIC MATERIAL, OR SALT THEREOF, AND METHOD FOR PREPARING SAME” (SCAI THERAPEUTICS CO., LTD., priority 2021, published 2024):
# Experiment: Corneal permeation experiment in Ussing chamber
# Type: in vitro ADME
# Conditions: pig cornea, 37° C., after 18 hours
# Protocol: The corneal permeation experiment was conducted with reference to the contents of “Lee et. al, “Modulating the Transport Characteristics of Bruch's Membrane With Steroidal Glycosides and its Relevance to Age-Related Macular Degeneration (AMD). Invest. Ophthalmol. Vis. Sci. 2015, 56, 8403, 2015,” which is an already published paper. […] Basically, the drug is put into the donor chamber of the Ussing chamber, the corneal part of the pig eye is collected in a circular shape of 8 mm in size, and other tissues attached to the cornea were removed, and then fixed in place of the membrane, and the solution permeating the membrane was received in the receiving chamber, and at this time, it was placed in a constant temperature chamber in which the temperature at which diffusion occurs was adjusted to 37° C., which is close to human body temperature, and stored. After a certain amount of time passed, the diffusion properties of each sample could be identified by measuring the concentration of the solution in each donor chamber and receiving chamber. For the concentration, UV/VIS spectrum (Evolution201 UV/Vis; Thermo) was used, and the concentration was measured using a peak height at 420 nm.
smiles,measurement,value
"CCN(CC)CCNC(=O)c1c(C)[nH]c(/C=C2\C(=O)Nc3ccc(F)cc32)c1C [Comparative Example 2, sunitinib-malate]","Drug in corneal tissue (μg, Mean ± SD)",65.7 ± 7.5 µg
same,"Drug in receiver (μg, Mean ± SD)",8.8 ± 5.8 µg
same,"Transport percentage* (%, Mean ± SD)",1.6 ± 1.1%
